Source: patent US7427625B2, “Substituted thiatriazaacenaphthylene-6-carbonitrile kinase inhibitors” (Janssen Pharmaceutica, N.V., priority 2006, dated 2008)

Legend:
Aurora-A = target: T1, Aurora-A (Mus musculus, UniProt P97477); assay: Aurora-A Screening Assay; assay type: biochemical, murine
T1 construct: followed by the full length protein encoding the murine Aurora-A; polyhistidine (N); made in house; host or cells: sf9 insect cells
T1 sequence (P97477 1-395): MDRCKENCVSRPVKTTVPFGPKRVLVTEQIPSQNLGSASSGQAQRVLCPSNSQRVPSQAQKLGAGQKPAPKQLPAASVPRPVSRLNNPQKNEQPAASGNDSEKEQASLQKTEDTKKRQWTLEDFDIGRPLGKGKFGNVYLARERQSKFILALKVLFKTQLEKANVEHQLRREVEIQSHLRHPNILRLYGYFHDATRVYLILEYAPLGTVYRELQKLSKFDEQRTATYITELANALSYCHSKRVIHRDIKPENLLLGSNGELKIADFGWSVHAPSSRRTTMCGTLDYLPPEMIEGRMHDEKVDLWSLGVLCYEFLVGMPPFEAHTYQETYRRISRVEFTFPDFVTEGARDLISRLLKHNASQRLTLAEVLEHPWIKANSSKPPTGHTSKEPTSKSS

VEGF-R2 = target: T2, VEGF-R2 (Rattus norvegicus, UniProt O08775); assay: VEGF-R2 Screening Assay; assay type: biochemical
T2 construct: polyhistidine (N)
T2 sequence (O08775 786-1343): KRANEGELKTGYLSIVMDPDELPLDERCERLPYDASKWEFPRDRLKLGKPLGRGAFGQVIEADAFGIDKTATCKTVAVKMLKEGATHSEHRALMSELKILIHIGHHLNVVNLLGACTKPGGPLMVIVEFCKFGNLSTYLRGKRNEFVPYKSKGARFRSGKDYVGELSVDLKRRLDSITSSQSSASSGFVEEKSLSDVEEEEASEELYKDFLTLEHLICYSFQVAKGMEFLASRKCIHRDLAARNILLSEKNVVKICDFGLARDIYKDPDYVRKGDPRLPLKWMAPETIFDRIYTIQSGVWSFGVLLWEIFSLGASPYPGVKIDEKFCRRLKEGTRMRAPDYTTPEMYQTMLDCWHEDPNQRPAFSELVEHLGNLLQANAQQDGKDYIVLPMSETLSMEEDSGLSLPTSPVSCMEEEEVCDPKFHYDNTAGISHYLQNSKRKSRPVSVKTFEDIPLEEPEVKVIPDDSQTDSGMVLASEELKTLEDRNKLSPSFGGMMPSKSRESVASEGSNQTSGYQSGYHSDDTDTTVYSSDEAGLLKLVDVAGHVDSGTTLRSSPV

EGFR = target: T3, EGFR (Homo sapiens, UniProt P00533); assay: EGFR Kinase Assay; assay type: biochemical; conditions: for inhibition at 2 µM: test concentration of 2 μM, read-out: EGFR percent inhibition
T3 construct: The intracellular portion of EGFR started at nucleotide 2189 (corresponding to amino acid 667) and ended at the termination codon; made in house; host or cells: Sf9 insect cells (baculovirus)
T3 sequence (P00533 669-1210 limits assumed): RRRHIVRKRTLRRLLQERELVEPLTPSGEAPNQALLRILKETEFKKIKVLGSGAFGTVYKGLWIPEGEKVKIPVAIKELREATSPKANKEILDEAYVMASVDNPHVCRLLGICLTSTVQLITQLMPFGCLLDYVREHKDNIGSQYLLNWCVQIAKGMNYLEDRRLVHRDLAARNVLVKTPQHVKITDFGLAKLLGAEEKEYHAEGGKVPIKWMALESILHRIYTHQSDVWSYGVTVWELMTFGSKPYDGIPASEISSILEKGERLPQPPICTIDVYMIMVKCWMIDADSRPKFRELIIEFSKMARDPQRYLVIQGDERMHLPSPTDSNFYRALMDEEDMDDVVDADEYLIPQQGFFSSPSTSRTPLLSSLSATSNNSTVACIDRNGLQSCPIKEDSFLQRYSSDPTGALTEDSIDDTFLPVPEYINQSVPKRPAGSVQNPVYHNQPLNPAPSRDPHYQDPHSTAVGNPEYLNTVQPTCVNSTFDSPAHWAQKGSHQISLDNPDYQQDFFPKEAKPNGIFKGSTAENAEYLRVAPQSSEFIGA
Method in brief: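 GST-fused EGFR intracellular domain (aa 667 to end), Sf9-expressed, phosphorylating biotinylated polyGluTyr with 5 μM ATP plus γ-33P ATP in Tris pH 8.0, MgCl2, vanadate, 1 mM DTT; 1 h, 30 °C, streptavidin Flashplate scintillation read. Triplicate 16-point half-log series from 200 uM; IC50 from % inhibition vs log concentration, else % inhibition at 2 μM.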

SMILES	IC50 (Aurora-A)	IC50 (VEGF-R2)	inhibition at 2 µM (EGFR)	IC50 (EGFR)	inhibition at 1 µM (Aurora-A; test concentration of 1 μM, read-out: Aurora-A percent inhibition)
N#Cc1c(N2CCOCC2)nc2sc(C(=O)Nc3ccc(CN4CCOCC4)cc3)c3c2c1N(c1c(Cl)ccc2c1OCO2)C(=O)N3 [Cpd 8, 5-(5-chloro-benzo[1,3]dioxol-4-yl)-6-cyano-7-morpholin-4-yl-4-oxo-4,5-dihydro-3H-1-thia-3,5,8-triaza-acenaphthylene-2-carboxylic acid (4-morpholin-4-ylmethyl-phenyl)-amide]	6.47 µM	14.1 µM	-6%	–	–
CCOC(=O)c1sc2nc(-c3cc(F)ccc3Cl)c(C#N)c3c2c1NC(=O)N3c1ccncc1 [Cpd 15, 7-(2-chloro-5-fluoro-phenyl)-6-cyano-4-oxo-5-pyridin-4-yl-4,5-dihydro-3H-1-thia-3,5,8-triaza-acenaphthylene-2-carboxylic acid ethyl ester]	> 100 µM	> 100 µM	6%	–	–
COc1cc(NC(=O)c2sc3ncc(C#N)c4c3c2NC(=O)N4c2ccc(Oc3ccccc3)cc2)ccc1CN1CCOCC1 [Cpd 45, 6-cyano-4-oxo-5-(4-phenoxy-phenyl)-4,5-dihydro-3H-1-thia-3,5,8-triaza-acenaphthylene-2-carboxylic acid (3-methoxy-4-morpholin-4-ylmethyl-phenyl)-amide]	> 100 µM	> 100 µM	–	0.093 µM	–
CN1CCC(NC(=O)c2sc3ncc(C#N)c4c3c2NC(=O)N4c2c(Cl)ccc3c2OCO3)CC1 [Cpd 10, 5-(5-chloro-benzo[1,3]dioxol-4-yl)-6-cyano-4-oxo-4,5-dihydro-3H-1-thia-3,5,8-triaza-acenaphthylene-2-carboxylic acid (1-methyl-piperidin-4-yl)-amide]	13.3 µM	~100 µM	–	3.96 µM	–
N#Cc1cnc2sc(C(=O)Nc3ccc(CN4CCOCC4)cc3)c3c2c1N(c1c(Cl)ccc2c1OCO2)C(=O)N3 [Cpd 4, 5-(5-chloro-benzo[1,3]dioxol-4-yl)-6-cyano-4-oxo-4,5-dihydro-3H-1-thia-3,5,8-triaza-acenaphthylene-2-carboxylic acid (4-morpholin-4-ylmethyl-phenyl)-amide]	10.6 µM	> 10 µM	36%	–	–
N#Cc1cnc2sc(C(=O)Nc3ccc(CCN4CCCCC4)cc3)c3c2c1N(c1c(Cl)ccc2c1OCO2)C(=O)N3 [Cpd 11, 5-(5-chloro-benzo[1,3]dioxol-4-yl)-6-cyano-4-oxo-4,5-dihydro-3H-1-thia-3,5,8-triaza-acenaphthylene-2-carboxylic acid [4-(2-piperidin-1-yl-ethyl)-phenyl]-amide]	> 1 µM	> 100 µM	–	1.6 µM	–
N#Cc1cnc2sc(C(=O)Nc3ccc(CN4CCCCC4)cc3)c3c2c1N(c1ccc(Oc2ccccc2)cc1)C(=O)N3 [Cpd 49, 6-cyano-4-oxo-5-(4-phenoxy-phenyl)-4,5-dihydro-3H-1-thia-3,5,8-triaza-acenaphthylene-2-carboxylic acid (4-piperidin-1-ylmethyl-phenyl)-amide]	> 100 µM	> 100 µM	–	0.224 µM	–
COc1cc(N2C(=O)Nc3c(C(=O)Nc4ccc(CCN5CCOCC5)cc4)sc4ncc(C#N)c2c34)c(Cl)cc1Cl [Cpd 6, 6-cyano-5-(2,4-dichloro-5-methoxy-phenyl)-4-oxo-4,5-dihydro-3H-1-thia-3,5,8-triaza-acenaphthylene-2-carboxylic acid [4-(2-morpholin-4-yl-ethyl)-phenyl]-amide]	> 10 µM	> 100 µM	7%	–	–
CC1CCN(Cc2ccc(NC(=O)c3sc4ncc(C#N)c5c4c3NC(=O)N5c3c(Cl)ccc4c3OCO4)cc2)CC1 [Cpd 19, 5-(5-chloro-benzo[1,3]dioxol-4-yl)-6-cyano-4-oxo-4,5-dihydro-3H-1-thia-3,5,8-triaza-acenaphthylene-2-carboxylic acid [4-(4-methyl-piperidin-1-ylmethyl)-phenyl]-amide]	–	> 100 µM	–	0.624 µM	9%
COC1CCN(Cc2ccc(NC(=O)c3sc4ncc(C#N)c5c4c3NC(=O)N5c3c(Cl)ccc4c3OCO4)cc2)CC1 [Cpd 18, 5-(5-chloro-benzo[1,3]dioxol-4-yl)-6-cyano-4-oxo-4,5-dihydro-3H-1-thia-3,5,8-triaza-acenaphthylene-2-carboxylic acid [4-(4-methoxy-piperidin-1-ylmethyl)-phenyl]-amide]	> 1 µM	> 10 µM	38%	–	–
COc1cc(N2C(=O)Nc3c(C(=O)Nc4ccc(CN5CCOCC5)cc4)sc4ncc(C#N)c2c34)c(Cl)cc1Cl [Cpd 5, 6-cyano-5-(2,4-dichloro-5-methoxy-phenyl)-4-oxo-4,5-dihydro-3H-1-thia-3,5,8-triaza-acenaphthylene-2-carboxylic acid (4-morpholin-4-ylmethyl-phenyl)-amide]	> 10 µM	> 100 µM	1%	–	–
CCOC(=O)c1sc2nc(N3CCOCC3)c(C#N)c3c2c1NC(=O)N3c1c(Cl)ccc2c1OCO2 [Cpd 7, 5-(5-chloro-benzo[1,3]dioxol-4-yl)-6-cyano-7-morpholin-4-yl-4-oxo-4,5-dihydro-3H-1-thia-3,5,8-triaza-acenaphthylene-2-carboxylic acid ethyl ester]	> 10 µM	> 100 µM	-5%	–	–
N#Cc1cnc2sc(C(=O)Nc3ccc(CCN4CCOCC4)cc3)c3c2c1N(c1c(Cl)ccc2c1OCO2)C(=O)N3 [Cpd 13, 5-(5-chloro-benzo[1,3]dioxol-4-yl)-6-cyano-4-oxo-4,5-dihydro-3H-1-thia-3,5,8-triaza-acenaphthylene-2-carboxylic acid [4-(2-morpholin-4-yl-ethyl)-phenyl]-amide]	5.93 µM	> 10 µM	23%	–	–
CC(C)(C)OC(=O)NC1CCN(Cc2ccc(NC(=O)c3sc4ncc(C#N)c5c4c3NC(=O)N5c3c(Cl)ccc4c3OCO4)cc2)CC1 [Cpd 46, [1-(4-{[5-(5-chloro-benzo[1,3]dioxol-4-yl)-6-cyano-4-oxo-4,5-dihydro-3H-1-thia-3,5,8-triaza-acenaphthylene-2-carbonyl]-amino}-benzyl)-piperidin-4-yl]-carbamic acid tert-butyl ester]	> 1 µM	> 100 µM	–	0.152 µM	–
CN(C)C1CCN(C(=O)c2sc3ncc(C#N)c4c3c2NC(=O)N4c2c(Cl)ccc3c2OCO3)CC1 [Cpd 41, 5-(5-chloro-benzo[1,3]dioxol-4-yl)-2-(4-dimethylamino-piperidine-1-carbonyl)-4-oxo-4,5-dihydro-3H-1-thia-3,5,8-triaza-acenaphthylene-6-carbonitrile]	> 10 µM	> 100 µM	7%	–	–
N#Cc1cnc2sc(C(=O)Nc3ccc(CCN4CCCCC4)cc3)c3c2c1N(c1ccc(Oc2ccccc2)cc1)C(=O)N3 [Cpd 48, 6-cyano-4-oxo-5-(4-phenoxy-phenyl)-4,5-dihydro-3H-1-thia-3,5,8-triaza-acenaphthylene-2-carboxylic acid [4-(2-piperidin-1-yl-ethyl)-phenyl]-amide]	> 100 µM	> 100 µM	39%	–	–
Cc1nc2sc(C(=O)Nc3ccc(CN4CCOCC4)cc3)c3c2c(c1C#N)N(c1c(Cl)ccc2c1OCO2)C(=O)N3 [Cpd 9, 5-(5-chloro-benzo[1,3]dioxol-4-yl)-6-cyano-7-methyl-4-oxo-4,5-dihydro-3H-1-thia-3,5,8-triaza-acenaphthylene-2-carboxylic acid (4-morpholin-4-ylmethyl-phenyl)-amide]	> 1 µM	> 10 µM	14%	–	–
CN1CCN(CCc2ccc(NC(=O)c3sc4ncc(C#N)c5c4c3NC(=O)N5c3c(Cl)ccc4c3OCO4)cc2)CC1 [Cpd 12, 5-(5-chloro-benzo[1,3]dioxol-4-yl)-6-cyano-4-oxo-4,5-dihydro-3H-1-thia-3,5,8-triaza-acenaphthylene-2-carboxylic acid {4-[2-(4-methyl-piperazin-1-yl)-ethyl]-phenyl}-amide]	~10 µM	> 100 µM	–	2.7 µM	–
CN(C)C1CCN(Cc2ccc(NC(=O)c3sc4ncc(C#N)c5c4c3NC(=O)N5c3c(Cl)ccc4c3OCO4)cc2)CC1 [Cpd 42, 5-(5-chloro-benzo[1,3]dioxol-4-yl)-6-cyano-4-oxo-4,5-dihydro-3H-1-thia-3,5,8-triaza-acenaphthylene-2-carboxylic acid [4-(4-dimethylamino-piperidin-1-ylmethyl)-phenyl]-amide]	> 10 µM	> 100 µM	–	0.85 µM	–
CCOC(=O)c1sc2nc(O)c(C#N)c3c2c1NC(=O)N3c1ccncc1 [Cpd 14, 6-cyano-7-hydroxy-4-oxo-5-pyridin-4-yl-4,5-dihydro-3H-1-thia-3,5,8-triaza-acenaphthylene-2-carboxylic acid ethyl ester]	> 100 µM	> 100 µM	-9%	–	–
